Source: PubChem BioAssay (NCI)
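96-well plates; 48 h exposure; 5 concentrations. Endpoints by linear interpolation between flanking doses. Not reached: highest tested concentration assigned. At the GI50, growth is halved. At the TGI there is no net growth.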

Assays:
Test in all cases: DTP human tumour cell line panel, 48 h
786-0 renal = tested on: 786-0 renal
A498 renal = tested on: A498 renal
CAKI-1 renal = tested on: CAKI-1 renal
EKVX NSCLC = tested on: EKVX NSCLC
SNB-75 CNS = tested on: SNB-75 CNS
UACC-62 melanoma = tested on: UACC-62 melanoma
MCF7 breast = tested on: MCF7 breast
RPMI-8226 leukemia = tested on: RPMI-8226 leukemia
RXF 393 renal = tested on: RXF 393 renal
DU-145 prostate = tested on: DU-145 prostate

| Structure (SMILES) | TGI (786-0 renal) [µM] | TGI (A498 renal) [µM] | TGI (CAKI-1 renal) [µM] | TGI (EKVX NSCLC) [µM] | TGI (SNB-75 CNS) [µM] | TGI (UACC-62 melanoma) [µM] | TGI (MCF7 breast) [µM] | TGI (RPMI-8226 leukemia) [µM] | TGI (RXF 393 renal) [µM] | GI50 (786-0 renal) [µM] | GI50 (A498 renal) [µM] | GI50 (CAKI-1 renal) [µM] | GI50 (DU-145 prostate) [µM] | TGI (DU-145 prostate) [µM] | GI50 (MCF7 breast) [µM] | GI50 (RPMI-8226 leukemia) [µM] | GI50 (RXF 393 renal) [µM] | GI50 (SNB-75 CNS) [µM] | GI50 (UACC-62 melanoma) [µM] | GI50 (EKVX NSCLC) [µM] |
| --- | --- | --- | --- | --- | --- | --- | --- | --- | --- | --- | --- | --- | --- | --- | --- | --- | --- | --- | --- | --- |
| CCCCCCCCC/C=C1\CCC(CN(C)C)C1=O (configuration not stated) | 0.963 | 6.4 | 4.99 | 4.81 | 6.28 | 5.73 | – | – | – | – | – | – | – | – | – | – | – | – | – | – |
| Oc1c(Cl)c(Cl)c(O)c2c1CCCC2 | 3.94 | 33.1 | – | 21.4 | – | 27 | 4.56 | 6.91 | 22.5 | – | – | – | – | – | – | – | – | – | – | – |
| COc1ccc(C2=C(c3ccc(OC)c(OC)c3)C(=O)N3CCCC3C2)cc1 (configuration not stated) | > 100 | > 100 | > 100 | – | > 72.9 | > 100 | > 100 | 62.6 | > 38.2 | 27.6 | 34.1 | 39.4 | 30.8 | > 86.8 | 31.8 | 8.47 | 11.5 | 16.6 | 13.2 | – |
| COc1cccc(NC(=O)CC(=O)N2N=C(n3ccc4ccccc43)CC2c2ccccc2)c1 (configuration not stated) | > 100 | > 100 | – | > 100 | > 100 | > 100 | – | > 100 | > 100 | – | – | – | – | – | – | – | – | – | – | – |
| COc1cc([N+](=O)[O-])c(OC)cc1-c1nc2sccn2c1/C=N/N=C(N)N | 49.6 | 66.5 | 66.3 | 73.6 | – | 70.5 | > 100 | > 100 | > 100 | 18 | 27.4 | 22.9 | 30.4 | > 100 | 22 | > 100 | 50.1 | – | 27.7 | 25.9 |
| COc1cccc(NC(=O)CC(=O)N2N=C(N3c4ccccc4Sc4ccccc43)CC2c2ccccc2)c1 (configuration not stated) | > 100 | > 100 | > 100 | > 100 | > 100 | > 100 | – | > 100 | > 100 | – | – | – | – | – | – | – | – | – | – | – |
| O=C(O)C(CS)NCc1c2ccccc2nc2ccccc12 (configuration not stated) | > 100 | – | > 100 | > 100 | > 100 | – | – | 70.3 | 98.4 | – | – | – | – | – | – | – | – | – | – | – |
| CCOC(=O)C1CCCCN1C(=O)c1ccc(Nc2cnc3cc(C(F)(F)F)ccc3n2)cc1 (configuration not stated) | 16.4 | 22.9 | 33.9 | > 100 | – | 27.7 | 25.1 | 6.42 | 8.45 | 4.82 | 10.3 | 18 | 20.5 | 92.2 | 10.2 | 2.2 | 3.23 | – | 14.2 | 36 |
| [O-]c1ccccc1/C=N/C(/N=C/c1ccccc1[O-])c1ccccc1O.[O-]c1ccccc1/C=N/C(/N=C/c1ccccc1[O-])c1ccccc1O.[Zr+4] | > 100 | – | – | > 100 | 61.1 | – | > 100 | > 100 | – | 41.6 | – | – | – | – | 35.9 | 24.5 | – | 3.8 | – | 46.1 |
| CC(=O)O[C@H]1CCC2[C@@H]3CCC4c5nonc5CC[C@]4(C)C3CC[C@@]21C (some centres not stated) | > 10 | > 10 | > 10 | > 100 | > 100 | > 100 | – | – | > 10 | – | – | – | – | – | – | – | – | > 10 | > 100 | > 100 |
| CC(C)(c1ccccc1)c1ccc(Oc2ccc(C#N)c(C#N)c2)cc1 | > 100 | > 100 | > 100 | > 100 | – | > 100 | – | > 100 | > 100 | > 100 | > 100 | > 100 | – | – | – | – | – | – | > 100 | – |
| CCc1ccccc1NC(=O)/C(N=O)=C(/C)O | > 100 | > 100 | > 100 | > 100 | > 100 | > 100 | – | > 100 | > 100 | – | – | – | – | – | – | – | – | – | – | – |
| O=S(=O)(/C=C/CS(=O)(=O)c1ccccc1)c1ccccc1 | 55.6 | 82.3 | – | > 100 | > 100 | 52.2 | – | 95.7 | > 100 | – | – | – | – | – | – | – | – | – | – | – |
| O=S(=O)(c1cccc2c(I)cccc12)N1CCCNCC1 | 32.8 | 30.2 | 37.8 | 39.7 | – | 37.3 | > 100 | 38.5 | 73 | 16.9 | 14.2 | 19.2 | 15.8 | 36.3 | 36.1 | 14.5 | 27.3 | – | 19.9 | 19.8 |
| NC(=O)NC12CC3CC(CC(F)(C3)C1)C2 | > 100 | > 100 | – | > 100 | > 100 | > 100 | – | > 100 | > 100 | – | – | – | – | – | – | – | – | – | – | – |
| CN1CCc2[nH]nc(-c3n[nH]c4c3CN(C)CC4)c2C1 | > 100 | > 100 | > 100 | > 100 | – | > 100 | > 100 | > 100 | > 100 | – | – | – | – | > 100 | – | – | – | – | – | – |
| CC(C)CCNCC(O)Cn1c2ccccc2c2ccccc21 (configuration not stated) | 27.3 | 22.8 | 29.8 | – | 21 | 22.4 | 10.3 | 11.2 | 19.9 | 13.2 | 9.52 | 14.3 | 14.6 | 27.9 | 2.72 | 3.1 | 5.36 | 6.54 | 10.4 | – |
| O=[N+]([O-])c1cc(Cl)cnc1Br | 20.2 | 32 | – | 15.2 | – | 4.9 | 2.84 | 6.79 | 3.12 | – | – | – | – | > 100 | – | – | – | – | – | – |
| COc1ccc(C2=CC(c3ccc(OC)cc3Br)N3C=CSC3=N2)cc1 (configuration not stated) | 28.7 | 32.5 | 51.4 | – | 43.7 | 10.7 | 11.2 | 7.29 | 22 | 13.1 | 13.3 | 13.4 | 11.9 | 33.1 | 1.51 | 1.86 | 7.67 | 15.6 | 2.79 | – |
